Laboratory results: publication PMC4833640 (Journal of Medicinal Chemistry, 2016)

Experiment: not given
Details: reason why data were considered unreliable

For Oc1c(F)ccc(Cc2ccccc2)c1F [Compound 33, 3-Benzyl-2,6-difluorophenol], the “PAMPA assay observation on the donor plate” value was “compound precipitation”.
With Oc1c(F)cc(Cc2ccccc2)cc1F [Compound 32, 4-Benzyl-2,6-difluorophenol] the “PAMPA assay observation on the donor plate” value was “high nonspecific binding”.

Experiment: not given
Details: 24 h incubation, aqueous buffer pH 7.4

In the case of Oc1ccccc1SCc1ccccc1 [Compound 34, 2-(Benzylthio)phenol], the “detection after incubation in aqueous buffer (stability)” value is reported as “not detected after the 24 h incubation in aqueous buffer”.

Experiment: Colorimetric hydrogen-bond assay with pyrazinone sensor
Format: physicochemical
Details: blue-shift of λmax of the sensor, compared with carboxylic acid 1

For c1ccc(CCc2nnn[nH]2)cc1 [Compound 16, 5-Phenethyl-1H-tetrazole], the “hydrogen-bond (HB) interaction with pyrazinone sensor” value was “significantly stronger HB interactions than the corresponding carboxylic acid”.

Experiment: physchem
Details: measured pKa values

O=C(CCc1ccccc1)NO [Compound 2, N-(Hydroxy)-3-phenylpropanamide] and CONC(=O)CCc1ccccc1 [Compound 4, N-Methoxy-3-phenylpropanamide] cannot be ordered by pKa: > 8 for the first, > 8 for the second.

O=c1c(O)c(NCc2ccccc2)c1=O [Compound 31, 3-(Benzylamino)-4-hydroxycyclobut-3-ene-1,2-dione] and O=c1c(O)c(Cc2ccccc2)c1=O [Compound 30, 3-Benzyl-4-hydroxycyclobut-3-ene-1,2-dione] cannot be ordered by pKa: < 4 for the first, < 4 for the second.

NS(=O)(=O)CCc1ccccc1 [Compound 10, 2-Phenylethane-1-sulfonamide] and CS(=O)(=O)NCCCc1ccccc1 [Compound 11, N-(3-Phenylpropyl)methanesulfonamide] cannot be ordered by pKa: > 8 for the first, > 8 for the second.

CC(=O)NC(=O)NCc1ccccc1 [Compound 15, N-(Benzylcarbamoyl)acetamide] and CC(=O)NOCCc1ccccc1 [Compound 5, N-Phenethoxyacetamide] cannot be ordered by pKa: > 8 for the first, > 8 for the second.

First: CC(=O)N(O)CCc1ccccc1 [Compound 3, N-Hydroxy-N-phenethylacetamide]
Second: S=c1[nH]c(CCc2ccccc2)no1 [Compound 22, 3-Phenethyl-1,2,4-oxadiazole-5(4H)-thione]
The pKa of the first is higher: > 8 for the first, < 4 for the second.
